Data published in publication PMC6220894 (Food and chemical toxicology : an international journal …, 2018).
Like-named read-outs stand apart in the source and are kept apart here.

Experiments:
[1] = ref Davies et al., 2002; Zagol-Ikapitte et al., 2010a; cited from earlier work
[2] = test system: Salmonella typhimurium TA 98; experiment: Ames bacterial reverse mutation assay, plate incorporation method; assay type: cell-based
[3] = Red blood cell distribution in whole blood; assay type: in vitro ADME; conditions: male, Sprague-Dawley, rat, whole blood (EDTA)
[4] = In vitro metabolism in cryopreserved hepatocytes; assay type: in vitro ADME; conditions: rabbit hepatocytes; 25 µM; 4 hours
[5] = test system: Salmonella typhimurium TA 100; assay type: cell-based; conditions: plate incorporation
[6] = test system: Salmonella typhimurium TA 98; experiment: Ames bacterial reverse mutation assay, pre-incubation method; assay type: cell-based
[7] = test system: Salmonella typhimurium TA 100; assay type: cell-based; conditions: pre-incubation
[8] = test system: Salmonella typhimurium TA 1537; experiment: Ames bacterial reverse mutation assay, plate incorporation method; assay type: cell-based
plasma protein = conditions: human plasma, mean ± SE
in vitro = conditions: both, human, plasma (pooled), pH 7.4
memory deficits = conditions: mouse model of Alzheimer's disease; ref Davies et al., 2011; cited from earlier work
[9] = Red blood cell distribution in whole blood; assay type: in vitro ADME; conditions: human, whole blood (pooled, EDTA)
[10] = +S9, 0.05 mg/plate as printed (third dose row)
[11] = −S9, 0.05 mg/plate as printed (third dose row)

CC(=O)O.NCc1ccccc1O [2-HOBA, 2-Hydroxybenzylamine acetate]
γKA scavenging rate relative to the rate of formation of γKA protein adducts [1]: 980 fold | Mean plate counts (revertant colonies) ([2]; +S9, 0.05 mg/plate): 20.7±1.2 | Mean plate counts (revertant colonies) [2, 10]: 20.7±1.2 | Mean plate counts (revertant colonies) ([2]; +S9, 0.15 mg/plate): 21.0±3.0 | Mean plate counts (revertant colonies) ([2]; +S9, 1.5 mg/plate): 21.3±1.5 | Mean plate counts (revertant colonies) ([2]; +S9, 5 mg/plate): 22.0±2.0 | Change in revertant colony counts vs negative control (mutagenicity) ([2]; +S9 and −S9, all dose levels): No changes in revertant colony counts were observed | Mean plate counts (revertant colonies) ([2]; −S9, 0.05 mg/plate): 19.7±1.5 | Mean plate counts (revertant colonies) [2, 11]: 22.0±3.6 | Mean plate counts (revertant colonies) ([2]; −S9, 0.15 mg/plate): 20.0±1.0 | Mean plate counts (revertant colonies) ([2]; −S9, 1.5 mg/plate): 21.3±1.5 | Mean plate counts (revertant colonies) ([2]; −S9, 5 mg/plate): 21.0±2.0 | Kp at 2 h, 1 µM [3]: 0.72 ± 0.1 | Kp at 2 h, 10 µM [3]: 0.78 | blood plasma ratio at 2 h, 1 µM [3]: 0.87 ± 0.05 | blood plasma ratio at 2 h, 10 µM [3]: 0.9 | principle metabolites observed [4]: salicylic acid (M1) and the glycoside conjugate metabolite of 2-HOBA | Mean plate counts (revertant colonies) ([5]; +S9, 0.05 mg/plate): 106.3±1.5 | Mean plate counts (revertant colonies) [5, 10]: 96.3±5.1 | Mean plate counts (revertant colonies) ([5]; +S9, 0.15 mg/plate): 104.7±8.1 | Mean plate counts (revertant colonies) ([5]; +S9, 1.5 mg/plate): 106.7±6.1 | Mean plate counts (revertant colonies) ([5]; +S9, 5 mg/plate): 101.3±4.2 | Change in revertant colony counts vs negative control (mutagenicity) ([5]; +S9 and −S9, all dose levels): No changes in revertant colony counts were observed | Mean plate counts (revertant colonies) ([5]; −S9, 0.05 mg/plate): 90.3±1.5 | Mean plate counts (revertant colonies) [5, 11]: 100.0±9.2 | Mean plate counts (revertant colonies) ([5]; −S9, 0.15 mg/plate): 105.3±8.3 | Mean plate counts (revertant colonies) ([5]; −S9, 1.5 mg/plate): 101.3±3.2 | Mean plate counts (revertant colonies) ([5]; −S9, 5 mg/plate): 100.7±2.1 | Mean plate counts (revertant colonies) ([6]; +S9, 0.05 mg/plate): 25.7±3.1 | Mean plate counts (revertant colonies) ([6]; +S9, 0.15 mg/plate): 23.7±2.5 | Mean plate counts (revertant colonies) ([6]; +S9, 0.5 mg/plate): 24.3±2.1 | Mean plate counts (revertant colonies) ([6]; +S9, 1.5 mg/plate): 25.7±3.1 | Mean plate counts (revertant colonies) ([6]; +S9, 5 mg/plate): 22.3±3.2 | Change in revertant colony counts vs negative control (mutagenicity) ([6]; +S9 and −S9, all dose levels): No changes in revertant colony counts were observed | Mean plate counts (revertant colonies) ([6]; −S9, 0.05 mg/plate): 20.0±1.0 | Mean plate counts (revertant colonies) [6, 11]: 20.7±2.1 | Mean plate counts (revertant colonies) ([6]; −S9, 0.15 mg/plate): 16.7±1.5 | Mean plate counts (revertant colonies) ([6]; −S9, 1.5 mg/plate): 22.3±3.2 | Mean plate counts (revertant colonies) ([6]; −S9, 5 mg/plate): 23.0±1.0 | Mean plate counts (revertant colonies) ([7]; +S9, 0.05 mg/plate): 114.7±12.9 | Mean plate counts (revertant colonies) ([7]; +S9, 0.15 mg/plate): 120.7±7.6 | Mean plate counts (revertant colonies) ([7]; +S9, 0.5 mg/plate): 119.3±7.6 | Mean plate counts (revertant colonies) ([7]; +S9, 1.5 mg/plate): 112.0±7.2 | Mean plate counts (revertant colonies) ([7]; +S9, 5 mg/plate): 114.0±12.5 | Change in revertant colony counts vs negative control (mutagenicity) ([7]; +S9 and −S9, all dose levels): No changes in revertant colony counts were observed | Mean plate counts (revertant colonies) ([7]; −S9, 0.05 mg/plate): 98.7±2.3 | Mean plate counts (revertant colonies) [7, 11]: 103.7±1.5 | Mean plate counts (revertant colonies) ([7]; −S9, 0.15 mg/plate): 96.7±6.1 | Mean plate counts (revertant colonies) ([7]; −S9, 1.5 mg/plate): 94.7±4.2 | Mean plate counts (revertant colonies) ([7]; −S9, 5 mg/plate): 105.3±6.1 | Mean plate counts (revertant colonies) ([8]; +S9, 0.05 mg/plate): 6.3±0.6 | Mean plate counts (revertant colonies) [8, 10]: 6.3±0.6 | Mean plate counts (revertant colonies) ([8]; +S9, 0.15 mg/plate): 6.3±1.5 | Mean plate counts (revertant colonies) ([8]; +S9, 1.5 mg/plate): 6.0±1.0 | Mean plate counts (revertant colonies) ([8]; +S9, 5 mg/plate): 6.3±1.5 | Change in revertant colony counts vs negative control (mutagenicity) ([8]; +S9 and −S9, all dose levels): No changes in revertant colony counts were observed | Mean plate counts (revertant colonies) ([8]; −S9, 0.05 mg/plate): 5.0±1.0 | Mean plate counts (revertant colonies) [8, 11]: 5.3±0.6 | Mean plate counts (revertant colonies) ([8]; −S9, 0.15 mg/plate): 5.0±0.0 | Mean plate counts (revertant colonies) ([8]; −S9, 1.5 mg/plate): 5.7±1.2 | Mean plate counts (revertant colonies) ([8]; −S9, 5 mg/plate): 6.0±1.0 | fb (bound fraction) (plasma protein; 1 µM): 0.079 ± 0.023 | fb (bound fraction) (plasma protein; 10 µM): 0.140 ± 0.022 | fraction unbound at 4 h, 1 µM (in vitro): 0.921 ± 0.024 | fraction unbound at 4 h, 10 µM (in vitro): 0.86 | memory deficits (memory deficits): protection from memory deficits | Kp at 2 h, 1 µM [9]: 1.26 ± 0.01 | Kp at 2 h, 10 µM [9]: 1.08 | blood plasma ratio at 2 h, 1 µM [9]: 1.12 ± 0.03 | blood plasma ratio at 2 h, 10 µM [9]: 1.04
